≈ marks a conversion by molar mass, not a printed value. Like-named read-outs stand apart in the source and are kept apart here.
Columns and labels:
[1] = system: mice; experiment: Acute toxicity (LD50), intravenous injection in mice; assay type: in vivo; details: statement in words
Description: The LD50 of these bistramides is in fact of the order of 1.7 mg/kg (measured in mice, after injection of the product by intravenous route as a single dose).
The "LD50 " of the products of the invention has been measured for mice after injection of the products by intravenous route.

[2] = system: KB; experiment: Cytotoxicity, 50% inhibition of cell growth, KB; assay type: cell-based; details: Homo sapiens, read-out: IC50 (50% inhibition of cell growth)
Description: (§1) The cytoxicity results are recorded hereafter as the IC50 in μg/ml (concentration corresponding to a 50% inhibition of cell growth) on 6 tumoural lines namely KB, P388, P388/dox (resistant to doxorubicin), B16 and H429 and NSCLC-N6, which are human cells of non-small cell bronchopulmonary carcinoma type.
(§2) The determinations were carried out according to the protocol given in Cancer Chemother. Pharmacol. (1991) 28:283-292 by Roussakis et al.

[3] = system: P388/dox (p388r); experiment: Cytotoxicity, 50% inhibition of cell growth, P388/dox (resistant to doxorubicin); assay type: cell-based; details: Mus musculus
Description: as §1, §2

[4] = system: B16; experiment: Cytotoxicity, 50% inhibition of cell growth, B16; assay type: cell-based; details: Mus musculus, B16; read-out: IC50 (50% inhibition of cell growth)
Description: as §1, §2

[5] = system: HT 29; experiment: Cytotoxicity, 50% inhibition of cell growth, HT 29; assay type: cell-based; details: Homo sapiens; HT 29; read-out: IC50 (50% inhibition of cell growth)
Description: as §1, §2

[6] = system: NSCLC solid tumours (xenograft); assay type: in vivo, nude mouse; details: at the end of 30 days
Description: The anti-tumoural activity of the products of the invention was studied against solid tumours of NSCLC type grafted onto a nude mouse (D. Riou, C. Roussakis, J. F. Biard, J. F. Verbist: "Comparative study of antitumor activity of bistramides A, D and K against non-small cell bronchopulmonary carcinoma", Anticancer Research, 1993, 13, 2321-2334). Each mouse received 0.2 ml of a cell solution obtained by the mechanical dispersion of about 1 g of excised mouse tumour in 4.8 ml of a sterile saline solution. The sub-cutaneous grafted tumours were measured over their long length L and their short length 1. The tumoural volume was evaluated according to the formula Vt=L×1^2 /2. The tumoural growth on day d was calculated by the formula Vtd /Vtd0 for each mouse, Vtd0 being the tumoural volume at the start of treatment.
The curve "------.circle-solid.------ " relates to the control experiment, the curves "--- .diamond-solid.---", "-- .quadrature.--" and "-- .box-solid.--" to experiments with 10, 20 and 5 mg/kg of bistramide D respectively and the curve "----*----" to an experiment with 10 mg/kg of bistramide K. Each point represents the average tumoural growth for 6 mice.
In these experiments, bistramide K is injected at the rate of 10 mg/kg by intraperitoneal route for 16 days and bistramide D at the rate of 5 mg/kg by intraperitoneal route every day for 16 days; at 10 mg/kg by intravenous route on days 1, 5, 9, 14, and at 20 mg/kg by intravenous route on days 1, 5, 9, 14.

[7] = system: Plasmodium vinckei petteri; experiment: Study of the parasitic stage susceptible to bistramides; assay type: in vivo, Plasmodium vinckei petteri in SWISS female white mice; details: for patent period: time necessary for the parasitemia to reach 1%: 15 mg/kg, control 5 D
Description: In order to appreciate the parasitic stage or stages the most susceptible to the action of the bistramides of the invention, the effect of these bistramides was studied on each parasitic stage predominant during the cell cycle for a given species of Plasmodium.
The results given hereafter concern the effect of bistramide B on the parasitic stages of Plasmodium vinckei petteri.
After infestation of the mice, five batches of five mice are constituted. Each batch is treated with a dose of 15 mg/kg of bistramide D at the moment when one of the stages predominates.
In addition, the following batches are prepared: one control batch, one batch of merozoites, one ring batch, one batch of young trophozoites, one batch of middle trophozoites and one batch of old trophozoites.
The following are evaluated: the retardation of parasitemia or the patent period as the time in days necessary for the parasitemia to reach 1%.

[8] = system: Plasmodium vinckei petteri; experiment: Comparison of monodose and multidose therapeutic schema; assay type: in vivo, Plasmodium vinckei petteri in SWISS female white mice
Description: The object is to monitor the parasitemia on a daily basis and to evaluate the inhibition of the parasitemia according to the therapeutic schema adopted for the treatment. The following are shown: the morphological modifications of the parasite by the parasitic formula, calculation of the parasitic formula is also carried out on smears and allows the evaluation of each stage:ring, young trophozoite, middle trophozoite, old trophozite for 100 red blood corpuscles.
a) after infestation, three batches of five mice are constituted, namely
a so-called monodose batch, for which a single injection of bistramide D (15 mg/kg) is given to the mouse on D0
a so-called multidose batch, where the injection of bistramide D is carried out by administering five doses on D0, D1, D2, D3, D4 respectively (total dose 15 mg/kg)
b) the preparation and reading of the smears is carried out every day for 21 days.
The percentage of parasitemia and the percentage inhibition of the development of the parasite is determined for each batch.

C/C=C/C(O)CC1CCC(C)C(CC(=O)NCC(O)C(C)C(=O)NCCCC2OC3(CCCC(CCC(C)/C=C(\C)C(C)O)O3)CCC2C)O1 (stereo not shown) [Bistramide D]
toxicity in vivo [1]: less toxic
IC50 [2]: 10 µg/mL (≈ 14.1 µM)
IC50 [3]: 5.82 µg/mL (≈ 8.23 µM)
IC50 [4]: 0.1 µg/mL (≈ 0.141 µM)
IC50 [5]: 2.76 µg/mL (≈ 3.9 µM)
tumoural growth relative to controls (100%) ([6]; 5 mg/kg, IP, every day for 16 days): 100%
tumoural growth relative to controls (100%) ([6]; 10 mg/kg, IV, days 1, 5, 9, 14): 76%
tumoural growth relative to controls (100%) ([6]; 20 mg/kg, IV, days 1, 5, 9, 14): 53%
stage selectivity / significance versus control batch ([7]; KRUSKAL-WALLIS unilateral test, middle and old trophozoite): selective activity
patent period: time necessary for the parasitemia to reach 1% ([7]; merozoite batch): 5 D
patent period: time necessary for the parasitemia to reach 1% ([7]; middle trophozoite batch): 6.25 D
patent period: time necessary for the parasitemia to reach 1% ([7]; old trophozoite batch): 6.2 D
patent period: time necessary for the parasitemia to reach 1% ([7]; ring batch): 5.4 D
patent period: time necessary for the parasitemia to reach 1% ([7]; young trophozoite batch): 5.6 D
percentage inhibition of the development of the parasite ([8]; Monodose (15 mg/kg on D0), D3): 51.5%
parasitemia ([8]; Monodose (15 mg/kg on D0), D3, controls 0.33): 0.16%
percentage inhibition of the development of the parasite ([8]; Monodose (15 mg/kg on D0), D4): 33.3%
parasitemia ([8]; Monodose (15 mg/kg on D0), D4, controls 1.2): 0.80%
percentage inhibition of the development of the parasite ([8]; Monodose (15 mg/kg on D0), D5): 36.3%
parasitemia ([8]; Monodose (15 mg/kg on D0), D5, controls 5.5): 3.5%
percentage inhibition of the development of the parasite ([8]; Monodose (15 mg/kg on D0), D7): 0%
parasitemia ([8]; Monodose (15 mg/kg on D0), D7, controls 50): 64%
percentage inhibition of the development of the parasite ([8]; Monodose (15 mg/kg on D0), D8): 16.4%
parasitemia ([8]; Monodose (15 mg/kg on D0), D8, controls 67): 56%
percentage inhibition of the development of the parasite ([8]; Monodose (15 mg/kg on D0), D9): 12.5%
parasitemia ([8]; Monodose (15 mg/kg on D0), D9, controls 48): 42%
percentage inhibition of the development of the parasite ([8]; Monodose (15 mg/kg on D0), D10): 0%
parasitemia ([8]; Monodose (15 mg/kg on D0), D10, controls 1): 1%
parasitic formula, old trophozoite (OT) ([8]; Monodose, D5, control 3%): 9%
parasitic formula, middle trophozoite (MT) ([8]; Monodose, D5, control 7%): 14%
parasitic formula, young trophozoite (YT) ([8]; Monodose, D5, control 17.5%): 37%
parasitic formula, ring stage (R) ([8]; Monodose, D5, control 72.5%): 40%
parasitic formula, old trophozoite (OT) ([8]; Monodose, D7, control 10%): 6%
parasitic formula, middle trophozoite (MT) ([8]; Monodose, D7, control 15%): 14%
parasitic formula, young trophozoite (YT) ([8]; Monodose, D7, control 17%): 31%
parasitic formula, ring stage (R) ([8]; Monodose, D7, control 58%): 47%
parasitic formula, old trophozoite (OT) ([8]; Multidose, D5, control 3%): 7%
parasitic formula, middle trophozoite (MT) ([8]; Multidose, D5, control 7%): 40%
parasitic formula, young trophozoite (YT) ([8]; Multidose, D5, control 17.5%): 28%
parasitic formula, ring stage (R) ([8]; Multidose, D5, control 72.5%): 25%
parasitic formula, old trophozoite (OT) ([8]; Multidose, D7, control 10%): 93%
parasitic formula, middle trophozoite (MT) ([8]; Multidose, D7, control 15%): 0%
parasitic formula, young trophozoite (YT) ([8]; Multidose, D7, control 17%): 0%
parasitic formula, ring stage (R) ([8]; Multidose, D7, control 58%): 7%
percentage inhibition of the development of the parasite ([8]; Multidoses (D0-D4, total 15 mg/kg), D3): 63.6%
parasitemia ([8]; Multidoses (D0-D4, total 15 mg/kg), D3, controls 0.33): 0.12%
percentage inhibition of the development of the parasite ([8]; Multidoses (D0-D4, total 15 mg/kg), D4): 83.3%
parasitemia ([8]; Multidoses (D0-D4, total 15 mg/kg), D4, controls 1.2): 0.2%
percentage inhibition of the development of the parasite ([8]; Multidoses (D0-D4, total 15 mg/kg), D5): 70.9%
parasitemia ([8]; Multidoses (D0-D4, total 15 mg/kg), D5, controls 5.5): 1.6%
percentage inhibition of the development of the parasite ([8]; Multidoses (D0-D4, total 15 mg/kg), D7): 85.2%
parasitemia ([8]; Multidoses (D0-D4, total 15 mg/kg), D7, controls 50): 7.4%
percentage inhibition of the development of the parasite ([8]; Multidoses (D0-D4, total 15 mg/kg), D8): 0%
parasitemia ([8]; Multidoses (D0-D4, total 15 mg/kg), D8, controls 67): 74%
percentage inhibition of the development of the parasite ([8]; Multidoses (D0-D4, total 15 mg/kg), D9): 0%
parasitemia ([8]; Multidoses (D0-D4, total 15 mg/kg), D9, controls 48): 67%
percentage inhibition of the development of the parasite ([8]; Multidoses (D0-D4, total 15 mg/kg), D10): 0%
parasitemia ([8]; Multidoses (D0-D4, total 15 mg/kg), D10, controls 1): 30%
duration of the action ([8]; after last injection on D4, multidose batch): about 3 days
effect on Plasmodium from D8 ([8]; from D8): apparently being no longer effected
parasitemia of monodose batch versus control batch ([8]; monodose batch, D4): no difference is observed
